The values below are quoted from earlier work in patent US20070077220A1, “Stable ascorbic acid compositions” (priority 2005, published 2007).

`O=C1O[C@H]([C@@H](O)CO)C(O)=C1O` [L-ascorbic acid]: the “pK (acid-ionizable hydrogen in water)” value is listed as 4.2.
